Experimental data: patent US20210015772A1, “PHARMACEUTICAL COMPOSITION FOR PREVENTION OR TREATMENT OF FIBROSIS” (CRYSTALGENOMICS, INC., priority 2018, published 2021)

What was measured:
Type in all cases: in vivo, C57BL/6 mice
[1] = tested on: kidney with acute renal failure induced after ureteral obstruction (renal fibrosis); test: Histopathology analysis (hematoxylin and eosin) of kidney in unilateral ureteral obstruction (renal failure) mouse model; details: 30 mg/kg/day intake in distilled water, day 7 after ureteral obstruction, compared to the solvent control group
Description: 8-week old female C57BL/6 mice were used. After opening the abdomen of C57BL/6 mice, one of two ureters was closed with 6-0 cotton yarn. After closing the ureter, the abdomen was sutured and disinfected. Immediately after surgery, the host mice were classified into the solvent control group which is the non-intake group, and the CG200745 intake group in which CG200745 dissolved in distilled water was consumed (30 mg/kg/day). On the 7th day after surgery, the solvent control group and the CG200745 intake group mice were euthanized, and then normal kidney and the kidney with acute renal failure induced after ureteral obstruction were extracted. The extracted normal kidney and kidney with acute renal failure induced were fixed with 4% paraformaldehyde, and then covered with paraffin to prepare a tissue section with a 3 μm thickness. Hematoxylin and eosin staining was conducted on the completed tissue sections to perform a histopathological analysis of renal tissues. For hematoxylin staining, kidney tissue sections were stained with Gill's hematoxylin for 5 minutes, washed with tap water, and then treated with 95% ethanol. Eosin staining was performed by staining with eosin and phloxine for 1 minute. The tissue sections were then dehydrated with ethanol and xylene and fixed with Canada balsam.

[2] = tested on: α-SMA (alpha-smooth muscle actin); test: Expression level of fibrosis marker α-SMA by real-time PCR in kidney of unilateral ureteral obstruction mouse model; details: 30 mg/kg intake, kidney with renal failure induced through ureteral obstruction, compared to the solvent control group
Description: 8-week old female C57BL/6 mice were used. After opening the abdomen of C57BL/6 mice, one of two ureters was closed with 6-0 cotton yarn. After closing the ureter, the abdomen was sutured and disinfected. Immediately after surgery, the host mice were classified into the solvent control group which is the non-intake group, and the CG200745 intake group in which CG200745 dissolved in distilled water was consumed (30 mg/kg/day). On the 7th day after surgery, the solvent control group and the CG200745 intake group mice were euthanized, and then normal kidney and the kidney with acute renal failure induced after ureteral obstruction were extracted. […]
The kidney cortex was homogenized with Trizol solution (Invitrogen, Carlsbad, Calif.). […] The washed RNA was dissolved in distilled water and then the concentration was determined by measuring absorbance at 260 nm (Ultraspec 2000; Pharmacia Biotech, Cambridge, UK). cDNA was produced by reverse transcription of […] RNA using oligo(dT) primer and superscript reverse transcriptase II (Invitrogen, Carlsbad, Calif.). The produced cDNA was quantified by measuring with SYBR Green using Smart Cycler II System (Cepheid, Sunnyvale, Calif.). […]

[3] = tested on: bleomycin-induced pulmonary fibrosis; test: Histopathological analysis of lung (H&E, Masson's trichrome) in bleomycin-induced mouse model; details: 15, 30, 60 mg/kg intraperitoneally for 2 weeks after 2 mg/kg bleomycin into the airway
Description: (§1) As a bleomycin model, 7-week old female C57BL/6 mice were used, and the mice were divided into a total of 5 groups, a bleomycin-administered group, CG200745-administered groups in which CG200745 is administered at 15, 30, 60 mg/kg after administration of bleomycin, and a control group to perform the experiment. Airway incision was performed on the mice and 2 mg/kg bleomycin was injected into the airway in a volume of 50 μl. After injection, the incision site was closed with 5-0 nylon. After the injection of bleomycin, the drug was administered intraperitoneally for a total of 2 weeks. The mice were sacrificed and subjected to chest opening and then the lungs were removed and fixed with 4% paraformaldehyde. They were fixed by immersing in 4% paraformaldehyde for 48 hours at 4° C., and then a paraffin block was prepared. 4 μm of microsection was made from the paraffin-embedded tissue and attached to a slide. Hemotoxin and eosin staining and Masson's trichrome staining were performed. For hemotoxin and eosin staining, the slide was immersed in xylene twice for 5 minutes each and in 100%, 95% and 70% ethanol for 2 minutes each, and washed with running distilled water. After washing, the slide was immersed in hematoxylin for 1 minute, washed several times with running distilled water, then immersed in eosin for 30 seconds and washed several times with running distilled water. […]

collagen [4] = test: Sircol assay of bronchoalveolar lavage fluid in bleomycin-induced mouse model; details: 15, 30, 60 mg/kg intraperitoneally for 2 weeks after 2 mg/kg bleomycin into the airway
Description: (§2) As a bleomycin model, 7-week old female C57BL/6 mice were used, and the mice were divided into a total of 5 groups, a bleomycin-administered group, CG200745-administered groups in which CG200745 is administered at 15, 30, 60 mg/kg after administration of bleomycin, and a control group to perform the experiment. Airway incision was performed on the mice and 2 mg/kg bleomycin was injected into the airway in a volume of 50 μl. After injection, the incision site was closed with 5-0 nylon. After the injection of bleomycin, the drug was administered intraperitoneally for a total of 2 weeks.
(§3) After two weeks of drug administration, the skin of the airway of the mouse was incised to expose the airway and washed with 800 μl of PBS into the trachea and then 500 μl of the solution was recovered therefrom to obtain bronchoalveolar lavage fluid. The bronchoalveolar lavage fluid was centrifuged at 4° C. and 1,200 rpm for 5 minutes to obtain supernatant. 50 μl of the bronchoalveolar lavage fluid and 1 ml of sircol dye reagent were mixed for 30 minutes. After centrifugation at 4° C. and 12,000 rpm for 10 minutes, the supernatant was discarded, 750 μl of Acid-salt wash reagent was added for washing, and then centrifugation was performed at 12,000 rpm for 10 minutes. After discarding the supernatant, 1 ml of Alkali reagent was added and absorbance was measured at 555 nm.

[5] = tested on: α-SMA, Collagen I, PAI-1, Acetylated H3; test: Western blot of fibrosis markers and Acetylated H3 in lung tissue of bleomycin-induced mouse model; details: 15, 30, 60 mg/kg intraperitoneally for 2 weeks, western blot densitometry
Description: as §2
(§4) Western blot was performed to identify makers of pulmonary fibrosis (α-SMA, collagen I, PAI-1, E-cadherin, N-cadherin) and Acetylated H3 in tissues. The mice were sacrificed, and then subjected to chest opening and the lungs were removed and stored frozen for a day, and the mouse tissues were ground to prepare a protein sample. It was subjected to SDS-PAGE and the fractionated protein sample was transferred to PVDF (polyvinylidene difluoride) membrane. […]
(§5) With the average for two controls being 1, the relative value was recorded to conduct densitometry analysis.

[6] = tested on: polyhexamethylene guanidine-induced pulmonary fibrosis; test: Histopathological analysis of lung (H&E, Masson's trichrome) in polyhexamethylene guanidine-induced pulmonary fibrosis mouse model; details: 15, 30, 60 mg/kg intraperitoneally for 2 weeks after 1 mg/kg polyhexamethylene guanidine into the airway
Description: as §1, with “a polyhexamethylene guanidine (PHMG)” for “a bleomycin”, “a polyhexamethylene guanidine-administered” for “a bleomycin-administered”, “of polyhexamethylene guanidine,” for “of bleomycin,”, “and 1” for “and 2”, “mg/kg polyhexamethylene guanidine” for “mg/kg bleomycin”, “water.” for “water. After washing, the slide was immersed in hematoxylin for 1 minute, washed several times with running distilled water, then immersed in eosin for 30 seconds and washed several times with running distilled water.”

collagen [7] = test: Sircol assay of bronchoalveolar lavage fluid in polyhexamethylene guanidine-induced pulmonary fibrosis mouse model; details: 15, 30, 60 mg/kg intraperitoneally for 2 weeks after 1 mg/kg polyhexamethylene guanidine into the airway
Description: as §2, with “a polyhexamethylene guanidine (PHMG)” for “a bleomycin”, “a polyhexamethylene guanidine-administered” for “a bleomycin-administered”, “of polyhexamethylene guanidine,” for “of bleomycin,”, “and 1” for “and 2”, “mg/kg polyhexamethylene guanidine” for “mg/kg bleomycin”
as §3, with “After centrifugation at 4° C. and 12,000 rpm for 10 minutes, the supernatant was discarded, 750 μl of Acid-salt wash reagent was added for washing, and then centrifugation was performed at 12,000 rpm for 10 minutes.” left out

[8] = tested on: α-SMA, Collagen I, PAI-1, Acetylated H3; test: Western blot of fibrosis markers and Acetylated H3 in lung tissue of polyhexamethylene guanidine-induced pulmonary fibrosis mouse model; details: PHMG model, 15, 30, 60 mg/kg intraperitoneally for 2 weeks, western blot densitometry
Description: as §2, with “a polyhexamethylene guanidine (PHMG)” for “a bleomycin”, “a polyhexamethylene guanidine-administered” for “a bleomycin-administered”, “of polyhexamethylene guanidine,” for “of bleomycin,”, “and 1” for “and 2”, “mg/kg polyhexamethylene guanidine” for “mg/kg bleomycin”
as §4, §5

Q: How did the “fibrosis progression in the kidney (histopathology)” value [1] turn out when `CN(C)CCCNC(=O)/C(=C/CCCCC(=O)NO)COc1cccc2ccccc12` [CG200745, (E)-N1-(3-(dimethylamino)propyl)-N8-hydroxy-2-((naphthalene-1-yloxy)methyl)oct-2-enediamide] was run?
A: Its value is “inhibited”.

Q: And the “reduction of α-SMA expression (real-time PCR)” value [2]?
A: Its value is at least 50%.

Q: What about the “degree of fibrosis and collagen accumulation increased by bleomycin treatment (lung histopathology)” value [3] of the same compound?
A: Its value is “significantly decreased in CG200745 concentration-dependent manner and normalized”.

Q: And the “collagen in bronchoalveolar lavage fluid increased by bleomycin treatment (sircol assay)” value (collagen [4])?
A: Its value is “significantly decreased in CG200745 concentration-dependent manner”.

Q: What about the “expression levels of fibrosis markers (α-SMA, Collagen I, PAI-1) increased by bleomycin treatment” value ([5]; lung tissue) of the same compound?
A: Its value is “reduced in CG200745 concentration-dependent manner”.

Q: What about the “level of histone acetylation (Acetylated H3) in lung tissue” value [5] of the same compound?
A: The value was “increased”.

Q: What about the “polyhexamethylene guanidine-induced pulmonary fibrosis (lung histopathology)” value [6] of the same compound?
A: The value was “suppressed in CG200745 concentration-dependent manner and normalized”.

Q: And the “collagen in bronchoalveolar lavage fluid increased by polyhexamethylene guanidine (sircol assay)” value (collagen [7])?
A: The value was “significantly decreased in CG200745 concentration-dependent manner”.

Q: What about the “expression levels of fibrosis markers (α-SMA, Collagen I, PAI-1) increased by polyhexamethylene guanidine treatment” value ([8]; lung tissue) of the same compound?
A: The value was “reduced in CG200745 concentration-dependent manner”.

Q: And the “level of histone acetylation (Acetylated H3) in lung tissue” value [8]?
A: The value was “increased”.
